Assay results reported in paper PMC7265341, “Quantifying CDK inhibitor selectivity in live cells” (Nature Communications, 2020).
Read-outs that look alike come from different tables or passages of the source.

Experiments:
CDK1/Cyclin E1 = CDK1/Cyclin E1 (Homo sapiens, UniProt P06493); test: NanoBRET live-cell target engagement, CDK1-NanoLuc/Cyclin E1 in HEK-293; type: binding; conditions: CDK1/E1, 10µM
CDK2/Cyclin E1 = CDK2/Cyclin E1 (Homo sapiens, UniProt P24941); test: NanoBRET live-cell target engagement, CDK2-NanoLuc/Cyclin E1 in HEK-293; type: binding; conditions: CDK2/E1, 10µM
CDK4/Cyclin D1 = CDK4/Cyclin D1 (Homo sapiens, UniProt P11802); test: NanoBRET live-cell target engagement, NanoLuc-CDK4/Cyclin D1 in HEK-293; type: binding; conditions: CDK4/D1, 10µM
CDK4/Cyclin D1, sequence (P11802 whole entry): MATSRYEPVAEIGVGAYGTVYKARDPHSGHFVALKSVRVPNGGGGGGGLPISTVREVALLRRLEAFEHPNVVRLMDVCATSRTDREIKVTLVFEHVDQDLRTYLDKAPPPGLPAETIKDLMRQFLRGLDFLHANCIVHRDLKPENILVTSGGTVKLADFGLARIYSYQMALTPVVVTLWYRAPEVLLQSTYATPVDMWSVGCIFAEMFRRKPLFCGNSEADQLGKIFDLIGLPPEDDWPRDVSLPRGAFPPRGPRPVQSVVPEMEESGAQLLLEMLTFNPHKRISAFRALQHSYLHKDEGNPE
CDK4/Cyclin D1, sequence (P24385 whole entry partner): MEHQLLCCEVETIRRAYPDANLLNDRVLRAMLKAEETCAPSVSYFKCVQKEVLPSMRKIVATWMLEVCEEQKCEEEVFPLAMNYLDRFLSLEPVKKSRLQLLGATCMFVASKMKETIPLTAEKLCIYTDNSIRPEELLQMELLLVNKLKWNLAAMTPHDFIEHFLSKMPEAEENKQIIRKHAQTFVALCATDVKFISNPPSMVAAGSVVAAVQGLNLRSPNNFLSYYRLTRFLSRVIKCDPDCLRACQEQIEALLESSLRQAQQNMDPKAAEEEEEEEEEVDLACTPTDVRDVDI

CDK5/CDK5R1 = CDK5/CDK5R1 (Homo sapiens, UniProt Q00535); test: NanoBRET live-cell target engagement, CDK5-NanoLuc/CDK5R1 in HEK-293; type: binding; conditions: CDK5/CDK5R1, 10µM
CDK5/CDK5R1, sequence (Q00535 whole entry): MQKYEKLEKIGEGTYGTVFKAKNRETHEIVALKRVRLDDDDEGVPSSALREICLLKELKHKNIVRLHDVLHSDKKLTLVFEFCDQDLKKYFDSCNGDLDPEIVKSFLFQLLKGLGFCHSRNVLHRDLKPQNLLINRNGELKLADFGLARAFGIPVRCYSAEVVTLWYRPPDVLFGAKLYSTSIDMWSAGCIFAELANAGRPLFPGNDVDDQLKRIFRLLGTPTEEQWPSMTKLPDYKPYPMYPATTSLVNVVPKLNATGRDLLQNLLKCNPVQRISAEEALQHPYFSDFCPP
CDK5/CDK5R1, sequence (Q15078 whole entry partner): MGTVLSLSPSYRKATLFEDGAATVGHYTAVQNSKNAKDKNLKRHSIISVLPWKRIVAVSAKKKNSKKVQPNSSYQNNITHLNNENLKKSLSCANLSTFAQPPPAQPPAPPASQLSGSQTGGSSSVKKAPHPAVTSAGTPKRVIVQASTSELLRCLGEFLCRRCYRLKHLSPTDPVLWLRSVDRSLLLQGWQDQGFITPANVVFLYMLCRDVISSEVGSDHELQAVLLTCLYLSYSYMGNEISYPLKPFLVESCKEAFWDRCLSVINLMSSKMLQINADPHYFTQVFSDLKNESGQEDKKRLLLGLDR

CDK6/Cyclin D1 = CDK6/Cyclin D1 (Homo sapiens, UniProt Q00534); test: NanoBRET live-cell target engagement, NanoLuc-CDK6/Cyclin D1 in HEK-293; type: binding; conditions: CDK6/D1, 10µM
CDK6/Cyclin D1, sequence (Q00534 whole entry): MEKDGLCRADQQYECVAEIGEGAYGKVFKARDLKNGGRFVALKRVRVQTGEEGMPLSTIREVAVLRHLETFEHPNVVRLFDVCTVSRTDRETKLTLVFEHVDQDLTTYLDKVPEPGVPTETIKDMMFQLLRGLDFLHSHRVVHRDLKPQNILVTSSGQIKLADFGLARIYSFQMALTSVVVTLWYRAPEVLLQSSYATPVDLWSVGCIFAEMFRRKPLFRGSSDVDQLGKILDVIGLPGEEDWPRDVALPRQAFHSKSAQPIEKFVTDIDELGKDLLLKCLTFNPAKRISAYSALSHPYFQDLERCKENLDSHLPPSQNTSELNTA
CDK6/Cyclin D1, sequence (P24385 whole entry partner): as the sequence (P24385 whole entry partner) above

CDK7 = CDK7 (Homo sapiens, UniProt P50613); test: NanoBRET live-cell target engagement, NanoLuc-CDK7 in HEK-293; type: binding; conditions: CDK7, 10µM
CDK8/Cyclin C = CDK8/Cyclin C (Homo sapiens, UniProt P49336); test: NanoBRET live-cell target engagement, NanoLuc-CDK8/Cyclin C in HEK-293; type: binding; conditions: CDK8/C, 10µM
CDK8/Cyclin C, sequence (P49336 whole entry): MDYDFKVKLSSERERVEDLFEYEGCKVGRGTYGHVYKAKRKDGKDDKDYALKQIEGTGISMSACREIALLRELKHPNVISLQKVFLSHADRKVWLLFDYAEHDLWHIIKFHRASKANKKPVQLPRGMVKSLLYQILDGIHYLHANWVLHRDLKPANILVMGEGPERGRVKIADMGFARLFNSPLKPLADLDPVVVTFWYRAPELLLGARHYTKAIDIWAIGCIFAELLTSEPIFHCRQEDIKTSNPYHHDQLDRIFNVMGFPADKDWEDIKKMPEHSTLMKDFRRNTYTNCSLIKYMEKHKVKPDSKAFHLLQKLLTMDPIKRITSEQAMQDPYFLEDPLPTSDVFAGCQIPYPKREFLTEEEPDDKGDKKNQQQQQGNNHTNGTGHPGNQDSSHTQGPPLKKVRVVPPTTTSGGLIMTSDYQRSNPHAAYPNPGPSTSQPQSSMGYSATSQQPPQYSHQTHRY
CDK8/Cyclin C, sequence (P24863 whole entry partner): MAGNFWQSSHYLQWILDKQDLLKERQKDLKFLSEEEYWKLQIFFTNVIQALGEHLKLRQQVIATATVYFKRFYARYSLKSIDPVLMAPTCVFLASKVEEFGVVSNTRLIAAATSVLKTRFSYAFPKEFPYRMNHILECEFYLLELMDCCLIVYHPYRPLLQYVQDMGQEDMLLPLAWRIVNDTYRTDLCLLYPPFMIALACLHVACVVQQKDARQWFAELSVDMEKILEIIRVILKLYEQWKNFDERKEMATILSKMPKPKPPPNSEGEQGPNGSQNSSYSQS

CDK9/Cyclin K = CDK9/Cyclin K (Homo sapiens, UniProt P50750); test: NanoBRET live-cell target engagement, NanoLuc-CDK9/Cyclin K in HEK-293; type: binding; conditions: for inhibition at 10 µM: CDK9/K
CDK11A/Cyclin L2 = molecular target: T1, CDK11A/Cyclin L2 (Homo sapiens, UniProt Q9UQ88); test: NanoBRET live-cell target engagement, CDK11A-NanoLuc/Cyclin L2 in HEK-293; type: binding; conditions: CDK11a/L2, 10µM
T1 sequence (Q9UQ88 1-783): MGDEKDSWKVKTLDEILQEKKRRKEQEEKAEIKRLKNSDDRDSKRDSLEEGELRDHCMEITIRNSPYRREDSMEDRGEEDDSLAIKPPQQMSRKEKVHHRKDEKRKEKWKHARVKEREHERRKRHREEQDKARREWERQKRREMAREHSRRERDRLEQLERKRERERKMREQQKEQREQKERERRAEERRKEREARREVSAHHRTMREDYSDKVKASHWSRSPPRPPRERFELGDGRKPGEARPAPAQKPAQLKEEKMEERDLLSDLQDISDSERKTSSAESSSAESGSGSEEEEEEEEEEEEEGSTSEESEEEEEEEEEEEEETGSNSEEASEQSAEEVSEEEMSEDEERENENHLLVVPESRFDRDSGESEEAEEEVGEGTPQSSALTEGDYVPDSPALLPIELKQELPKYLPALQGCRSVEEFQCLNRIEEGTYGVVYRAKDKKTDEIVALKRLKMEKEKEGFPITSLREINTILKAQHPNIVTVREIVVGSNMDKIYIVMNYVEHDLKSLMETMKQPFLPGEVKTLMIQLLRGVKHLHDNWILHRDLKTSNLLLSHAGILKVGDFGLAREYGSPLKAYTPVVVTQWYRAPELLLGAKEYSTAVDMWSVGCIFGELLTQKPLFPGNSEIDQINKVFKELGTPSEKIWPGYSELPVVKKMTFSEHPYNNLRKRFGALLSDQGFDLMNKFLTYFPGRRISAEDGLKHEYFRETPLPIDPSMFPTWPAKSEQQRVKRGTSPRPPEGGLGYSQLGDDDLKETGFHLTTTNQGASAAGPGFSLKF

CDK11B/Cyclin L2 = CDK11B/Cyclin L2 (Homo sapiens, UniProt P21127); test: NanoBRET live-cell target engagement, CDK11B-NanoLuc/Cyclin L2 in HEK-293; type: binding; conditions: CDK11b/L2, 10µM
CDK11B/Cyclin L2, sequence (P21127 1-782 isoform P21127-2): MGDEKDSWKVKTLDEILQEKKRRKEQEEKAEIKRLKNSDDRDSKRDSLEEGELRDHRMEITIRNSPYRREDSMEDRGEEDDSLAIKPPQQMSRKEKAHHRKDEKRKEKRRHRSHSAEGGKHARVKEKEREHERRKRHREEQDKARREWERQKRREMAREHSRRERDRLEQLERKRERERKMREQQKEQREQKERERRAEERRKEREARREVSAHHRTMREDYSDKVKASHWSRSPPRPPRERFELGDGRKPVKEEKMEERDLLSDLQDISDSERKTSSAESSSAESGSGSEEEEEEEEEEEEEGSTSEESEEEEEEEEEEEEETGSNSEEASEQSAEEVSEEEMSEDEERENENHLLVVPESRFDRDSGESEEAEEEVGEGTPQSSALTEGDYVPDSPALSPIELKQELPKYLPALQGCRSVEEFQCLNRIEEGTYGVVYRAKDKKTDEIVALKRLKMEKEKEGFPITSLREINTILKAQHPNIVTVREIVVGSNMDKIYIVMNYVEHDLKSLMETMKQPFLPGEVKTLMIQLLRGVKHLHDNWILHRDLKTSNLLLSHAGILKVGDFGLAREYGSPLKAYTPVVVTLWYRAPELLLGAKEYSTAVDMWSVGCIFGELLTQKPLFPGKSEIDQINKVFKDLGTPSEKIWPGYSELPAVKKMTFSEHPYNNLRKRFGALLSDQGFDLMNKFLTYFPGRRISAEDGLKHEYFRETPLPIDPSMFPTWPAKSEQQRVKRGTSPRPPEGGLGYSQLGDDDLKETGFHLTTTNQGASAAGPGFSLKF

CDK13/Cyclin K = CDK13/Cyclin K (Homo sapiens, UniProt Q14004); test: NanoBRET live-cell target engagement, CDK13-NanoLuc/Cyclin K in HEK-293; type: binding; conditions: CDK13/K, 10µM
CDK14/Cyclin Y = CDK14/Cyclin Y (Homo sapiens, UniProt O94921); test: NanoBRET live-cell target engagement, CDK14-NanoLuc/Cyclin Y in HEK-293; type: binding; conditions: CDK14/Y, 10µM
CDK15/Cyclin Y = CDK15/Cyclin Y (Homo sapiens, UniProt Q96Q40); test: NanoBRET live-cell target engagement, NanoLuc-CDK15/Cyclin Y in HEK-293; type: binding; conditions: CDK15/Y, 10µM
CDK15/Cyclin Y, sequence (Q96Q40 whole entry): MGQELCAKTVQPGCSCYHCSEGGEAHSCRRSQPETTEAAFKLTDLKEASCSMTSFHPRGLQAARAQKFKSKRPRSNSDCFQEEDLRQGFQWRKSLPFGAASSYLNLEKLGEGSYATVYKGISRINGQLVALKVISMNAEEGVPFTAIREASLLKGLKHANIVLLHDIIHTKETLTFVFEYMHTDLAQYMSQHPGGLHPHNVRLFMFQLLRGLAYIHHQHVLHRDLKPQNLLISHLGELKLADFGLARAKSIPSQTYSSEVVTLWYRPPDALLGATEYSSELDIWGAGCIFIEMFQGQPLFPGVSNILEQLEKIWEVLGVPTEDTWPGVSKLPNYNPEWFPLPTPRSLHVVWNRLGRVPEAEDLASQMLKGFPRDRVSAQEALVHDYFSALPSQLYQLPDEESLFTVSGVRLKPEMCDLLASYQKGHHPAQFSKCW
CDK15/Cyclin Y, sequence (Q8ND76 whole entry partner): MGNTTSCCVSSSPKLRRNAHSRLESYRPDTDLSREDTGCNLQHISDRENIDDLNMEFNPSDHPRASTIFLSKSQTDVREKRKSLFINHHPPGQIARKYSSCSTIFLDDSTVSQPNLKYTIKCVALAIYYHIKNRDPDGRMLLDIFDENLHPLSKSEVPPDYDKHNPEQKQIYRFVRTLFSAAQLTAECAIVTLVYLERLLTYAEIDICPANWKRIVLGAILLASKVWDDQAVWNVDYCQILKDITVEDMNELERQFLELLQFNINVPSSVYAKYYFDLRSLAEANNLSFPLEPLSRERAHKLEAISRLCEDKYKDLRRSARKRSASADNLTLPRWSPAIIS

CDK16/Cyclin Y = CDK16/Cyclin Y (Homo sapiens, UniProt Q00536); test: NanoBRET live-cell target engagement, CDK16-NanoLuc/Cyclin Y in HEK-293; type: binding; conditions: CDK16/Y, 10µM
CDK17/Cyclin Y = CDK17/Cyclin Y (Homo sapiens, UniProt Q00537); test: NanoBRET live-cell target engagement, CDK17-NanoLuc/Cyclin Y in HEK-293; type: binding; conditions: CDK17/Y, 10µM
CDK18/Cyclin Y = CDK18/Cyclin Y (Homo sapiens, UniProt Q07002); test: NanoBRET live-cell target engagement, CDK18-NanoLuc/Cyclin Y in HEK-293; type: binding; conditions: CDK18/Y, 10µM
CDK18/Cyclin Y, sequence (Q07002 whole entry): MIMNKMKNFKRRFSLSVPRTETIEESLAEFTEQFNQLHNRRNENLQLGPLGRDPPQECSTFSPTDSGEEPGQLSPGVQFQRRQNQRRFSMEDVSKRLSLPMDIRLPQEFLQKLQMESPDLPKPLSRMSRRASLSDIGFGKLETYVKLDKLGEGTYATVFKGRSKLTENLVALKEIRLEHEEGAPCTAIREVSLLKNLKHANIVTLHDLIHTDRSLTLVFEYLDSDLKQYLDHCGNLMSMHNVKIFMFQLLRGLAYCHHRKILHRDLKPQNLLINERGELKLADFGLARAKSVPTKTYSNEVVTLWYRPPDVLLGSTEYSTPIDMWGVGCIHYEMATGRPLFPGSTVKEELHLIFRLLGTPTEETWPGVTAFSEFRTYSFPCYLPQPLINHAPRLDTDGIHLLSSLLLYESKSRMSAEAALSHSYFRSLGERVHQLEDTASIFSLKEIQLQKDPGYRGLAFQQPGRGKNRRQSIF
CDK18/Cyclin Y, sequence (Q8ND76 whole entry partner): as the sequence (Q8ND76 whole entry partner) above

CDK20/Cyclin H = CDK20/Cyclin H (Homo sapiens, UniProt Q8IZL9); test: NanoBRET live-cell target engagement, NanoLuc-CDK20/Cyclin H in HEK-293; type: binding; conditions: CDK20/H, 10µM
CDK19/Cyclin C = CDK19/Cyclin C (Homo sapiens, UniProt Q9BWU1); test: NanoBRET live-cell target engagement, NanoLuc-CDK19/Cyclin C in HEK-293; conditions: 10µM
CDK10/Cyclin L2 = CDK10/Cyclin L2 (Homo sapiens, UniProt Q15131); test: NanoBRET live-cell target engagement, CDK10-NanoLuc/Cyclin L2 in HEK-293; conditions: 10µM
CDK10/Cyclin L2, sequence (Q15131 whole entry): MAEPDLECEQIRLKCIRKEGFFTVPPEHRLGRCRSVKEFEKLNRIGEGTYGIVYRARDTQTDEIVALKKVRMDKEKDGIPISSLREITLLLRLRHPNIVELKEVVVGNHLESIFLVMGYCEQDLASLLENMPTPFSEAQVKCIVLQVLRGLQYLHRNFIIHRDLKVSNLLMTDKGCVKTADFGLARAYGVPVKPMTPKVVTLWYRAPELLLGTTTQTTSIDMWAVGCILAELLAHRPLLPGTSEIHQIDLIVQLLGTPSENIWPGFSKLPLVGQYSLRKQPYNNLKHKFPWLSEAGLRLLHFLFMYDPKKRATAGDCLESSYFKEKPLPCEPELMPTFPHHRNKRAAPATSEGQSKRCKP

[1] = average of replicates, read-out: Inhibition at 10µM (%) Average
[2] = read-out: Inhibition at 10µM (%) Replicate 1
[3] = read-out: Inhibition at 10µM (%) Replicate 2

inhibition at 10 µM (CDK1/Cyclin E1; [1]): 56%
inhibition at 10 µM (CDK1/Cyclin E1; [2]): 55.2%
inhibition at 10 µM (CDK1/Cyclin E1; [3]): 56.8%
inhibition at 10 µM (CDK2/Cyclin E1; [1]): 72.3%
inhibition at 10 µM (CDK2/Cyclin E1; [2]): 71%
inhibition at 10 µM (CDK2/Cyclin E1; [3]): 73.6%
inhibition at 10 µM (CDK4/Cyclin D1; [1]): 79.7%
inhibition at 10 µM (CDK4/Cyclin D1; [2]): 75.9%
inhibition at 10 µM (CDK4/Cyclin D1; [3]): 83.4%
inhibition at 10 µM (CDK5/CDK5R1; [1]): 56.6%
inhibition at 10 µM (CDK5/CDK5R1; [2]): 44.9%
inhibition at 10 µM (CDK5/CDK5R1; [3]): 68.3%
inhibition at 10 µM (CDK6/Cyclin D1; [1]): 86.3%
inhibition at 10 µM (CDK6/Cyclin D1; [2]): 83.5%
inhibition at 10 µM (CDK6/Cyclin D1; [3]): 89.1%
inhibition at 10 µM (CDK7; [1]): 58.7%
inhibition at 10 µM (CDK7; [2]): 59.8%
inhibition at 10 µM (CDK7; [3]): 57.6%
inhibition at 10 µM (CDK8/Cyclin C; [1]): 9.9%
inhibition at 10 µM (CDK8/Cyclin C; [2]): 13.9%
inhibition at 10 µM (CDK8/Cyclin C; [3]): 5.9%
inhibition at 10 µM (CDK9/Cyclin K; [1]): 99.8%
inhibition at 10 µM (CDK9/Cyclin K; [2]): 99.5%
inhibition at 10 µM (CDK9/Cyclin K; [3]): 100%
CDK9 Occupancy Data, Plasmid (CDK9/Cyclin K; LOG10([BAY-1251152]) (LOG10(µM)) 0.045757): 99.1453
CDK9 Occupancy Data, Plasmid (CDK9/Cyclin K; LOG10([BAY-1251152]) (LOG10(µM)) 0.522879): 96.1111
CDK9 Occupancy Data, Plasmid (CDK9/Cyclin K; LOG10([BAY-1251152]) (LOG10(µM)) 1): 96.4103
CDK9 Occupancy Data, Plasmid (CDK9/Cyclin K; LOG10([BAY-1251152]) (LOG10(µM)) -0.43136): 97.094
CDK9 Occupancy Data, Plasmid (CDK9/Cyclin K; LOG10([BAY-1251152]) (LOG10(µM)) -0.90849): 95.641
CDK9 Occupancy Data, Plasmid (CDK9/Cyclin K; LOG10([BAY-1251152]) (LOG10(µM)) -1.38561): 91.9658
CDK9 Occupancy Data, Plasmid (CDK9/Cyclin K; LOG10([BAY-1251152]) (LOG10(µM)) -1.86273): 87.906
CDK9 Occupancy Data, Plasmid (CDK9/Cyclin K; LOG10([BAY-1251152]) (LOG10(µM)) -2.33985): 67.9487
CDK9 Occupancy Data, Plasmid (CDK9/Cyclin K; LOG10([BAY-1251152]) (LOG10(µM)) -2.81697): 29.4872
CDK9 Occupancy Data, Plasmid (CDK9/Cyclin K; LOG10([BAY-1251152]) (LOG10(µM)) -3.29409): 6.838
CDK9 Occupancy Data, Plasmid (CDK9/Cyclin K; LOG10([BAY-1251152]) (LOG10(µM)) -3.77121): 1.421e-14
inhibition at 10 µM (CDK11A/Cyclin L2; [1]): 44%
inhibition at 10 µM (CDK11A/Cyclin L2; [2]): 39.5%
inhibition at 10 µM (CDK11A/Cyclin L2; [3]): 48.5%
inhibition at 10 µM (CDK11B/Cyclin L2; [1]): 33.9%
inhibition at 10 µM (CDK11B/Cyclin L2; [2]): 35.6%
inhibition at 10 µM (CDK11B/Cyclin L2; [3]): 32.1%
inhibition at 10 µM (CDK13/Cyclin K; [1]): 23.2%
inhibition at 10 µM (CDK13/Cyclin K; [2]): 23.5%
inhibition at 10 µM (CDK13/Cyclin K; [3]): 22.8%
inhibition at 10 µM (CDK14/Cyclin Y; [1]): 19.5%
inhibition at 10 µM (CDK14/Cyclin Y; [2]): 16.7%
inhibition at 10 µM (CDK14/Cyclin Y; [3]): 22.4%
inhibition at 10 µM (CDK15/Cyclin Y; [1]): 40%
inhibition at 10 µM (CDK15/Cyclin Y; [2]): 31.9%
inhibition at 10 µM (CDK15/Cyclin Y; [3]): 48.2%
inhibition at 10 µM (CDK16/Cyclin Y; [2]): 62.8%
inhibition at 10 µM (CDK16/Cyclin Y; [3]): 66.7%
inhibition at 10 µM (CDK17/Cyclin Y; [1]): 59.9%
inhibition at 10 µM (CDK17/Cyclin Y; [2]): 56.6%
inhibition at 10 µM (CDK17/Cyclin Y; [3]): 63.1%
inhibition at 10 µM (CDK18/Cyclin Y; [1]): 46.2%
inhibition at 10 µM (CDK18/Cyclin Y; [2]): 38.7%
inhibition at 10 µM (CDK18/Cyclin Y; [3]): 53.8%
inhibition at 10 µM (CDK20/Cyclin H; [2]): 8.6%
inhibition at 10 µM (CDK20/Cyclin H; [3]): 8.9%
inhibition at 10 µM (CDK19/Cyclin C; read-out: Inhibition at 10µM (%) Average, CDK19/C, average of replicates): 21.3%
inhibition at 10 µM (CDK19/Cyclin C; read-out: Inhibition at 10µM (%) Replicate 1, CDK19/C): 28.8%
inhibition at 10 µM (CDK19/Cyclin C; read-out: Inhibition at 10µM (%) Replicate 2, CDK19/C): 13.7%
inhibition at 10 µM (CDK10/Cyclin L2; read-out: Inhibition at 10µM (%) Average, CDK10/L2, average of replicates): 45%
inhibition at 10 µM (CDK10/Cyclin L2; read-out: Inhibition at 10µM (%) Replicate 1, CDK10/L2): 38.6%
inhibition at 10 µM (CDK10/Cyclin L2; read-out: Inhibition at 10µM (%) Replicate 2, CDK10/L2): 51.4%
SMILES: COc1cc(F)ccc1-c1cc(Nc2cc(CS(C)(=N)=O)ccn2)ncc1F (stereo not drawn) [BAY-1251152]
